Measurements from a melting point compilation (Tetko et al.; mined from patent text by program, amines drawn as free bases though some values may be those of a salt).

`CCCCCc1cnc(-c2ccc(N=C=S)cc2)nc1` showed a melting point of 46 °C. `Cn1c(C(N)=O)nc([N+](=O)[O-])c1CBr` showed a melting point of 220 to 222 °C. `COc1ccc(-c2cnc(C)[nH]c2=O)cc1OC` showed a melting point of 187 to 188 °C. Work on `CCOC(=O)C1CCN(c2nnc(NCc3ccc4c(c3)OCO4)c3ccncc23)CC1` yielded a melting point of 135 to 136 °C. `CCCCCCNC(=O)OCc1ccc(CNC(=O)OC2CCN(C(=O)Oc3ccc(Oc4ccccc4)cc3)CC2)cc1` gave a melting point of 116 to 118 °C. In the case of `Cc1ccc(C2=CCN(CCCn3c(=O)[nH]c4cccc(C)c4c3=O)CC2)cc1`, the melting point is reported as 165 to 170 °C. In the case of `COc1cc2c(c(C(C)C)c1OC)C(=O)N(CSc1nnnn1-c1ccccc1)S2(=O)=O`, the melting point is reported as 69 to 71 °C. `CC(C)(C)[Si](C)(C)O[C@@H]1CO[C@H](c2cccnc2)[C@@H]1CCC(=O)O` showed a melting point of 93 to 94 °C. Work on `COC(=O)CS(=O)CCCCCn1nc(-c2ccccc2)c(-c2ccccc2)c1-c1ccccc1` (stereo not drawn) yielded a melting point of 108 to 109 °C. In the case of `[N-]=[N+]=Nc1nc(NC(=O)c2ccccc2)nc2c1ncn2CC(O)CF` (racemic), the melting point is reported as 198 °C. `Cc1cc(-c2nnn(C)n2)cc(C)c1OCCCCc1nccn1C` gave a melting point of 100 to 102 °C. With `CC1C=CCCC1C(O)C(N)=O` (stereo not drawn) the melting point was 149 to 151 °C. `CCCCCCCCCCCCCCCC(=O)Nc1nc(=O)n(C2OC(C)C(O)C2O)cc1F` (stereo not drawn) showed a melting point of 93 to 95 °C. In the case of `Cn1c(-c2ccc(OCC(=O)O)cc2)nc2c3ccccc3ccc21`, the melting point is reported as 227 °C. `O=C(O)c1ccc(CCc2ccc(NC(=O)C3CSc4ccccc4C3=O)cc2)cc1` (stereo not drawn) showed a melting point of 256 to 259 °C. Work on `Cc1c(C)n(CCc2ccccc2)c(C)c(C(=O)Nc2ccccc2)c1=O` yielded a melting point of 191 to 193 °C. `COc1ccc(NC(=O)c2ccc(C(C)(C)C#N)cc2)cc1` showed a melting point of 164 to 168 °C. For `CC(C)(C)OC(=O)Nc1ccc(O)c2ccccc12`, the melting point was 172 to 174 °C. With `CCCCCCCCCCCCC1=C(Br)C(=O)c2ccccc2C1=O` the melting point was 98 to 100 °C. For `CNCNc1cc(C(N)=O)ccc1C(C)(C)C`, the melting point was 143 to 144 °C. `CCOC(=O)c1cccc2c1c1c(C)ccc(C)c1n2S(=O)(=O)c1ccc(C)cc1` showed a melting point of 149 °C. With `C=C(C(=O)c1ccc(C(=O)O)cc1)c1cc(OC)c(OC)c(-c2cccs2)c1` the melting point was 156 to 157 °C. For `O=C(NCCNC1CCC(c2ccc3[nH]c(=O)oc3c2)CC1)c1ccccc1` (stereo not drawn), the melting point was 167 to 175 °C. `CC(C)S(=O)(=O)Nc1cc(C(=O)c2ccccc2)ccc1N` showed a melting point of 150 to 152 °C. For `CCOC(=O)Oc1ccc(S(=O)(=O)N2c3cc(F)ccc3-n3cccc3C2CC)cc1` (stereo not drawn), the melting point was 96 to 97 °C. `O=S(=O)(Nc1cc(F)c(Cl)cc1I)c1ccccc1` gave a melting point of 122 to 124 °C. In the case of `C=C(Cc1ccc2c(c1)OCO2)C(=O)O`, the melting point is reported as 121 °C. Work on `Cc1ccc(C(=O)C2=C(O)C(=O)N(c3ccc(C(C)C)nn3)C2c2ccc(C(C)C)cc2)cc1` (stereo not drawn) yielded a melting point of 269 to 270 °C. In the case of `CCCc1ccc(C(=O)O)c(F)c1F`, the melting point is reported as 69 °C. In the case of `Cn1cc2c(C(F)(F)F)cc(Cl)nc2n1`, the melting point is reported as 124 °C. For `CC(=CC(=O)NCCCCCC(=O)NO)c1ccccc1`, the melting point was 131 to 133 °C. `COc1cc(-c2nc(-n3ccnc3)c3c(C)c(C#N)sc3n2)cc(OC)c1OC` showed a melting point of 238 to 240 °C. In the case of `COc1cc(/C=C/c2ccc(N(C)C)cc2)cc(OC)c1OC`, the melting point is reported as 114 to 115 °C. For `O=C1OCCC1NS(=O)(=O)c1ccc(Cl)cc1` (racemic), the melting point was 113 to 115 °C. Work on `COc1ccc(S(=O)(=O)N2Cc3[nH]c4ccccc4c3CC2C(=O)O)cc1` (stereo not drawn) yielded a melting point of 154 °C. With `CC(C)(Cc1c(Sc2ccccc2)c2cc(F)ccc2n1Cc1ccc(Cl)cc1)C(=O)O` the melting point was 162 to 163 °C. With `CCOC(=N)c1sc2cc(Cl)ccc2c1O` the melting point was 226 °C. For `COc1ccc(-c2nc3cccc(C(N)=O)c3[nH]2)cc1`, the melting point was 261 to 263 °C. `CCCCn1c2ccc(C)cc2c(=O)c2c1cnn2C` gave a melting point of 262 °C. Compound `CC(=O)c1ccc2c(c1)oc(=O)n2N1CCC(c2noc3cc(F)ccc23)CC1` has a melting point of 152 to 154 °C. For `CCC(=O)NCCCSc1ccc(Cl)cc1`, the melting point was 69 to 70 °C. Work on `Cn1cc(C(N)=O)c(=O)c2sc(Cl)cc21` yielded a melting point of 325 to 327 °C. For `FC(F)(F)c1nnc(Sc2ccc(Cl)c(Cl)c2)s1`, the melting point was 46 °C. `COc1cccc(NC(=O)[C@H](CC(=O)OC(C)(C)C)NC(=O)OCc2ccccc2)c1` showed a melting point of 68 to 69 °C. Work on `CC(C)(C)CCN(CCC(C)(C)C)[C@@H](CC(=O)O)C(=O)O` yielded a melting point of 197 to 198 °C. `OCCCOc1c(Cl)cc(OCC=C(Cl)Cl)cc1Cl` gave a melting point of 56.6 °C. `CCC(C)(Cc1c[nH]c2ccccc12)NC=O` (stereo not drawn) showed a melting point of 122 to 124 °C. In the case of `Clc1ccc(-c2ccc(Br)cc2)cc1`, the melting point is reported as 81 to 82 °C. Compound `CNc1ncn(-c2c(Cl)cccc2Cl)c(=O)n1` has a melting point of 270 °C. Compound `Cn1cc(Br)c(-c2cccc(NC(=O)Cc3ccc(OC(F)(F)F)cc3)c2)n1` has a melting point of 141 to 142 °C. `COc1ccc(CCC(=O)CCC(Cc2ccc(OC)c(OC)c2)[N+](=O)[O-])cc1` (stereo not drawn) showed a melting point of 87 to 89 °C. `COc1ccc(NCCNc2ccc([N+](=O)[O-])cc2)cc1` gave a melting point of 150 °C. Compound `COc1cc(Cl)c(C(=O)c2c(C)ccc(OC)c2OC(=O)Cc2ccccc2)c(Cl)c1` has a melting point of 106 °C. In the case of `COc1ccc2c(c1)c(CCO)c(C)n2-c1ccnc2cc(Cl)ccc12`, the melting point is reported as 143 to 145 °C. `CCOC(=O)Cc1ccc2c(c1)sc1ccccc12` showed a melting point of 60 to 62 °C. `CC12CCCCC1CCC1C2CCC2(C)C(C(O)c3ccccc3)CCC12` (stereo not drawn) gave a melting point of 129 to 130 °C. With `CCOc1cc(-c2cc(C(F)(F)F)nc(-c3ccnc(-c4ccc(S(N)(=O)=O)s4)c3)n2)ccc1C(F)(F)F` the melting point was 238 °C. `O=C(O)CCc1cccc2ccccc12` showed a melting point of 151 to 153 °C. In the case of `Cc1cc(OCC2(O)CCS(=O)(=O)CC2)cc(C)c1-c1cccc(CNc2ccc(CCC(=O)O)c(F)c2)c1`, the melting point is reported as 178 °C. `C=CCOC(=O)c1ccc(OC(=O)c2ccc(O[Si](C)(C)C(C)(C)C)c(C34CC5CC(CC(C5)C3)C4)c2)nc1` gave a melting point of 130 to 132 °C. With `Cc1ccc(N2CCC(CCOc3ccc(-c4nc(C(C)C)no4)cc3)CC2)nn1` the melting point was 135 °C. In the case of `O=C(O)c1cn(Cc2ccc(Oc3ccccc3)cc2)nc1OCc1ccc(Oc2ccccc2)cc1`, the melting point is reported as 141 to 142 °C. `Cc1cn2cccc(OCc3c(Cl)ccc(S(=O)(=O)N4CCC[C@H]4C(=O)O)c3Cl)c2n1` showed a melting point of 135 °C. With `Cc1cc(N(C)Cc2oc(-c3ccc(C(F)(F)F)cc3)nc2C)cc(C)c1OCC(=O)O` the melting point was 122 to 123 °C. In the case of `O=C(NCC(F)(F)F)c1ccc(C2=NOC(c3cc(Cl)cc(Cl)c3)(C(F)(F)F)C2)cc1` (stereo not drawn), the melting point is reported as 94 to 96 °C. In the case of `O=C(O)c1cc(S)c(Cl)cc1Cl`, the melting point is reported as 254 to 255 °C. Compound `CC(=O)Nc1ccc(N2CCNCC2)cc1` has a melting point of 191 to 193 °C. In the case of `Cc1cc(Oc2c(Cl)cc(C(F)(F)F)cc2[N+](=O)[O-])n[nH]1`, the melting point is reported as 120 to 123 °C. Compound `COCCOc1ccc(I)cc1` has a melting point of 36 to 37 °C. `CCCn1nc2c(N)nc3ccccc3c2c1CCCCS(=O)(=O)N(C)C` gave a melting point of 144 to 146 °C. Work on `Cc1cc(Oc2ccc(C#N)cc2C(F)(F)F)n[nH]1` yielded a melting point of 123 to 125 °C. In the case of `CCCCC(Cc1ccc(OCCNC(=O)c2ccc(-c3ccc(CO)cc3)cc2)cc1)C(=O)O` (stereo not drawn), the melting point is reported as 111 to 113 °C. `CCOC(=O)c1cnc2cn[nH]c2c1Nc1ccccc1` gave a melting point of 164 to 165 °C. `CN(C(=O)OCc1ccccc1)c1ccc2c(c1)C(=O)C1(CC1)O2` showed a melting point of 79 to 81 °C. `N#CCCN1CCN(P(=S)(N2CCN(CCC#N)CC2)N2CCN(CCC#N)CC2)CC1` gave a melting point of 122 °C. With `CN(C)c1cccc2c1C1=NCCN1c1c(-c3noc(C4CC4)n3)ncn1-2` the melting point was 148 to 150 °C. Work on `COc1ccc(CNc2n[nH]c3ncnc(Nc4cccc(Cl)c4)c23)cc1OC` yielded a melting point of 228 to 232 °C. With `COc1cn(C(C)C)c(=O)o1` the melting point was 108 to 110 °C. In the case of `O=S(c1ccc(/C=C/c2nc(COc3ccc(CCCCn4ccnn4)cc3)co2)cc1)C(F)(F)F` (stereo not drawn), the melting point is reported as 122 to 123 °C. With `COc1ccc(-c2[nH]nc3c2C(=O)c2c(NC(=O)Cc4ccc(NC(=O)CN)cc4)cccc2-3)cc1` the melting point was 228 °C. With `CCCc1c(OCCCOc2ccc(Cl)c3ccccc23)ccc2c1OC(CCC(=O)O)(CCC(=O)O)CC2=O` the melting point was 170 to 171 °C. `CC(=O)N[C@@H](CCC(=O)O)C(N)=O` gave a melting point of 85 to 87 °C. For `O=C1CCCN1CC1CCN(c2nc(C(F)(F)F)ncc2O)CC1`, the melting point was 213 to 215 °C. `CN(C)C=NS(=O)(=O)c1nc2ccc(O)cc2s1` gave a melting point of 195 to 198 °C. For `CC1(C)CC(=O)N(CCOC(OCCN2C(=O)CC(C)(C)CC2=O)(C(=O)c2ccccc2)c2ccccc2)C(=O)C1`, the melting point was 130 °C. For `O=C(O)Cc1c(C(=O)c2ccc(Cl)cn2)[nH]c2cc(Cl)ccc12`, the melting point was 242 to 244 °C. With `Nc1ncnc2c1c(-c1cccc(O)c1)nn2Cc1oc2ccccc2c(=O)c1-c1cccc(F)c1` the melting point was 280 to 283 °C. With `COCCn1cc2c(C3C(=O)Nc4ccc(Br)cc43)nc(NCCC3CCNCC3)nc2n1` (stereo not drawn) the melting point was 248 to 251 °C. Compound `CC[Si](CC)(CC)OC1CC2=CCC3C4CCC(=O)C4(C)CCC3C2(C)C(O[Si](CC)(CC)CC)C1` (stereo not drawn) has a melting point of 99 to 100 °C. In the case of `C=CCN(CC=C)NC(=S)Nc1ccc(F)cc1`, the melting point is reported as 73 to 74 °C. Work on `COC(=O)[C@@H]1C[C@H](OC(=O)c2cccnc2)C(=O)[C@H]2[C@@]1(C)CC[C@H]1C(=O)O[C@H](c3ccoc3)C[C@]21C` yielded a melting point of 200 to 204 °C. Compound `NC1=NS(=O)N=C1NCCSCc1ccc(CN2CCCCC2)o1` (stereo not drawn) has a melting point of 161 to 163 °C. Work on `CC12CCC3C(CC=C4CCCCC43C)C1CC=C2Br` (stereo not drawn) yielded a melting point of 109 to 113 °C. With `CSc1csc2c1CCN(C)CC2c1ccccc1` (stereo not drawn) the melting point was 93 °C. In the case of `CC(C)C(NC(=O)c1ccc(C(=O)NCc2ccc([N+](=O)[O-])cc2)cc1)C(=O)N1CCCC1C(=O)NC(C(=O)C(F)(F)F)C(C)C` (mixture of isomers), the melting point is reported as 94 to 96 °C. For `O=C1OC2(CCN(C(=O)Nc3cnc(-c4ccccc4)cn3)CC2)c2ccc(F)cc21`, the melting point was 236 to 238 °C. `Cn1c(COc2ccc(CC3SC(=O)NC3=O)cc2)nc2ccc(Oc3cccc(NC(=O)Nc4ccccc4)c3)cc21` (stereo not drawn) gave a melting point of 165 to 167 °C. With `N#Cc1cccc2c1NC(=O)C2c1ncnc2c1cnn2C1CCCC1` (stereo not drawn) the melting point was 327 to 332 °C.
